Measured values: US8134015B2, “Compound inhibiting in vivo phosphorous transport and medicine containing the same” (Kyowa Hakko Kirin Co., Ltd., priority 2003, dated 2012)

Biological target: T1, rat NaPi-2b (Rattus norvegicus, UniProt Q9JJ09)
T1 construct: expressed in transfected cells; host or cells: Xenopus oocytes injected with cRNA
T1 sequence (Q9JJ09 1-695): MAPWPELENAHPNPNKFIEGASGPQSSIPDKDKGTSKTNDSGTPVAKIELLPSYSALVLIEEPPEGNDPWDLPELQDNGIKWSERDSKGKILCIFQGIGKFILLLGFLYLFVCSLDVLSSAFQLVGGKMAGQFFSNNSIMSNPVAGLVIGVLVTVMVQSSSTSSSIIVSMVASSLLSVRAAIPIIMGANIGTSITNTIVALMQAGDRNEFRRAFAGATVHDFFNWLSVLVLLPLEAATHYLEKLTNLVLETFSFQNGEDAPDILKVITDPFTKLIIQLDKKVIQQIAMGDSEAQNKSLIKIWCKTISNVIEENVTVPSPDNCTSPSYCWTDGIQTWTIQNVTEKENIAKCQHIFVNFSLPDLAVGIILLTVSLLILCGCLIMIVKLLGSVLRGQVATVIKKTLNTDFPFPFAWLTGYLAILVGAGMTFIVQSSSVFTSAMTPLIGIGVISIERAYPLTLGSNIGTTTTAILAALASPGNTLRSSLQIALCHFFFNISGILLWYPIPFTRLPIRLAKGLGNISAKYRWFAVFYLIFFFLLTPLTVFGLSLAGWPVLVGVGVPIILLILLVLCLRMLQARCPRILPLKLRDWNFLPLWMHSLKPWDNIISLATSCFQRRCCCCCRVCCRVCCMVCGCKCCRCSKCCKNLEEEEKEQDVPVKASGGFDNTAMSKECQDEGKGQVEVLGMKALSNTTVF
Assay: Sodium-dependent phosphate uptake of Xenopus oocytes which expressed NaPi-2b (32P)
Type: cell-based
Conditions: for IC50: Xenopus oocytes expressing rat NaPi-2b, 32P radioactive phosphorus, read-out: IC50 (phosphate uptake inhibitory activity); for inhibition at 300 µM: phosphate uptake, oocytes expressing rat NaPi-2b, determined from inhibition curve
Outline: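 Percent inhibition at 300 μM and 100 μM comes from the same inhibition curve of 32P uptake. Assay used oocytes expressing rat NaPi-2b after 2 days of culture.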

SMILES | IC50 [µM] | inhibition at 300 µM [%]
Cc1ccc(/C=N/NC(=O)c2cc(F)ccc2NC(=O)c2cc(F)ccc2NC(=O)c2cccc(CN(CC(C)O)CC(C)O)c2)cc1C (stereo not shown) [Compound 986, 2-(3-{[Bis-(2-hydroxy-propyl)-amino]-methyl}-benzoylamino)-N-[2-(3,4-dimethyl-benzylidene-hydrazinocarbonyl)-4-fluoro-phenyl]-5-fluoro-benzamide] | 29 | –
O=C(Nc1ccc(Cl)cc1C(=O)N/N=C/c1ccc(Cl)c(C(F)(F)F)c1)c1cccc(CSCCS(=O)(=O)O)c1 [Compound 709, 2-{3-[4-Chloro-2-(4-chloro-3-trifluoromethyl-benzylidene-hydrazinocarbonyl)-phenylcarbamoyl]-benzylsulfanyl}-ethanesulfonic acid] | – | 59.4
CCN(CC)CCN(C)Cc1cccc(C(=O)Nc2scc(C)c2C(=O)N/N=C/c2ccc(F)cc2)c1 [Compound 565, 3-{[(2-Diethylamino-ethyl)-methyl-amino]-methyl}-N-[3-(4-fluoro-benzylidene-hydrazinocarbonyl)-4-methyl-thiophen-2-yl]-benzamide] | 13 | –
Cc1ccc(/C=N/NC(=O)c2sc(C(C)(C)C)cc2NC(=O)c2cccc(CN3CCN(CCO)CC3)c2)cc1C [Compound 991, N-[5-Tert-butyl-2-(3,4-dimethyl-benzylidene-hydrazinocarbonyl)-thiophen-3-yl]-3-[4-(2-hydroxy-ethyl)-piperazin-1-ylmethyl]-benzamide] | – | 30.1
CCN(CC)CCN(C)Cc1cccc(C(=O)Nc2cc(OCCOC)c(OCCOC)cc2C(=O)N/N=C/c2ccc(OC)cc2)c1 [Compound 1032, 3-{[(2-Diethylamino-ethyl)-methyl-amino]-methyl}-N-[2-(4-methoxy-benzylidene-hydrazinocarbonyl)-4,5-bis-(2-methoxy-ethoxy)-phenyl]-benzamide] | – | 40
COc1cccc(/C=N/NC(=O)c2cc(Br)ccc2NC(=O)c2ccc(CN3CCC(CO)CC3)cc2)c1 [Compound 339, N-[4-Bromo-2-(3-methoxy-benzylidene-hydrazinocarbonyl)-phenyl]-4-(4-hydroxymethyl-piperidin-1-ylmethyl)-benzamide] | 12.8 | –
CCOc1ccc(C(=O)Nc2ccc(Br)cc2C(=O)N/N=C/c2ccc(C)cc2)cc1 [Compound 503, N-[4-Bromo-2-(4-methyl-benzylidene-hydrazinocarbonyl)-phenyl]-4-ethoxy-benzamide] | 10.3 | –
CN(CCCN(C)Cc1cccc(C(=O)Nc2ccc(Cl)cc2C(=O)N/N=C/c2ccc(F)cc2)c1)Cc1cccc(C(=O)Nc2ccc(Cl)cc2C(=O)N/N=C/c2ccc(F)cc2)c1 [Compound 701, N1-[4-Chloro-2-({2-[(E)-1-(4-fluorophenyl)methylidene]-hydrazino}carbonyl}phenyl}-3-{[{3-[(3-{[4-chloro-2-([2-[(E)-1-(4-fluorophenyl)methylidene]hydrazino}carbonyl}anilino}carbonyl}benzyl}-(methyl)amino)propyl)(methyl)amino]methyl]benzamide] | – | 54
CCN(CCO)Cc1ccc(C(=O)Nc2ccc(Cl)cc2C(=O)N/N=C/c2cccc(OC)c2)cc1 [Compound 438, N-[4-Chloro-2-(3-methoxy-benzylidene-hydrazinocarbonyl)-phenyl]-4-{[ethyl-(2-hydroxy-ethyl)-amino]-methyl}-benzamide] | 26.3 | –
COc1ccc(C(=O)Nc2ccccc2C(=O)N/N=C/c2ccccc2Br)cc1OC [Compound 10, N-[2-(2-Bromo-benzylidene-hydrazinocarbonyl)-phenyl]-3,4-dimethoxy-benzamide] | 26.1 | –
COc1ccc(C(=O)Nc2ccc(OCCCN(C)C)cc2C(=O)N/N=C/c2ccc(F)cc2)cc1OC [Compound 125, N-[4-(3-Dimethylamino-propoxy)-2-(4-fluoro-benzylidene-hydrazinocarbonyl)-phenyl]-3,4-dimethoxy-benzamide] | 136 | –
CCN(CC)Cc1cccc(C(=O)Nc2ccc(Cl)cc2C(=O)NOCc2ccccc2)c1 [Compound 1077] | – | 40.2

Further lines, results first:

IC50 [µM] | inhibition at 300 µM [%] | SMILES
1.75 | – | COc1ccc(C(=O)Nc2cc(Cl)ccc2C(=O)N/N=C/c2cccc(C)c2)cc1OC [Compound 73, N-[5-Chloro-2-(3-methyl-benzylidene-hydrazinocarbonyl)-phenyl]-3,4-dimethoxy-benzamide]
6.93 | – | Cc1ccc(/C=N/NC(=O)c2c(C)csc2NC(=O)c2cccc(CN(C)C)c2)cc1 [Compound 823, 3-Dimethylaminomethyl-N-[4-methyl-3-(4-methyl-benzylidene-hydrazinocarbonyl)-thiophen-2-yl]-benzamide]
4.44 | – | CN(C)CCn1nnnc1SCc1cccc(C(=O)Nc2ccc(Cl)cc2C(=O)N/N=C/c2ccc(F)cc2)c1 [Compound 463, N-[4-Chloro-2-(4-fluoro-benzylidene-hydrazinocarbonyl)-phenyl]-3-[1-(2-dimethylamino-ethyl)-1H-tetrazol-5-ylsulfanylmethyl]-benzamide]
< 1 | – | Cc1ccc(/C=N/NC(=O)c2cc(Cl)ccc2NC(=O)c2ccccn2)cc1 [Compound 362, Pyridin-2-carboxylic acid [4-chloro-2-(4-methyl-benzylidene-hydrazinocarbonyl)-phenyl]-amide]
4.46 | – | O=C(Nc1ccc(Br)cc1C(=O)N/N=C/C=C/c1ccccc1)c1cccnc1 [Compound 346, N-[4-Bromo-2-(3-phenyl-allylidene-hydrazinocarbonyl)-phenyl]-nicotinamide]
7.4 | – | O=C(Nc1ccc(Br)cc1C(=O)N/N=C/c1ccc(F)cc1)c1cccnc1 [Compound 173, N-[4-Bromo-2-(4-fluoro-benzylidene-hydrazinocarbonyl)-phenyl]-nicotinamide]
< 3 | – | CCN(CC)CCN(C)Cc1cccc(C(=O)Nc2ccc(I)cc2C(=O)N/N=C/c2ccc(C)cc2)c1 [Compound 475, 3-{[(2-Diethylamino-ethyl)-methyl-amino]-methyl}-N-[4-iodo-2-(4-methyl-benzylidene-hydrazinocarbonyl)-phenyl]-benzamide]
8.72 | – | COc1ccc(/C=N/NC(=O)c2cc(N3CCOCC3)ccc2NC(=O)c2ccc(OC)c(OC)c2)cc1 [Compound 941, 3,4-Dimethoxy-N-[2-(4-methoxy-benzylidene-hydrazinocarbonyl)-4-morpholin-4-yl-phenyl]-benzamide]
< 3 | – | CCN1CC(NCc2ccc(C(=O)Nc3ccc(Br)cc3C(=O)N/N=C/c3ccc(C)c(C)c3)cc2)CN1CC [Compound 750, N-[4-Bromo-2-(3,4-dimethyl-benzylidene-hydrazinocarbonyl)-phenyl]-4-[(1,2-diethyl-pyrazolidin-4-ylamino)-methyl]-benzamide]
2.1 | – | Cc1cccc(/C=N/NC(=O)c2cc(Br)ccc2NC(=O)c2ccc(CN3CCC(O)CC3)cc2)c1 [Compound 326, N-[4-Bromo-2-(3-methyl-benzylidene-hydrazinocarbonyl)-phenyl]-4-(4-hydroxy-piperidin-1-ylmethyl)-benzamide]
4.01 | – | O=C(Nc1ccc(Cl)cc1C(=O)N/N=C/c1cccc(F)c1)c1cccnc1 [Compound 184, N-[4-Chloro-2-(3-fluoro-benzylidene-hydrazinocarbonyl)-phenyl]-nicotinamide]
< 3 | – | CCN(CC)CCSCc1cccc(C(=O)Nc2ccc(N3CCCCC3)cc2C(=O)N/N=C/c2ccc(C)c(C)c2)c1 [Compound 876, 3-(2-Diethylamino-ethylsulfanylmethyl)-N-[2-(3,4-dimethyl-benzylidene-hydrazinocarbonyl)-4-piperidin-1-yl-phenyl]-benzamide]
9.51 | – | Cc1cc(/C=N/NC(=O)c2cc(Br)ccc2NC(=O)c2ccncc2)oc1C [Compound 221, N-[4-Bromo-2-(4,5-dimethyl-furan-2-ylmethylene-hydrazinocarbonyl)-phenyl]-isonicotinamide]
0.97 | – | CCN(CC)CCN(C)Cc1cccc(C(=O)Nc2ccc(Cl)cc2C(=O)N/N=C/c2cccc(F)c2)c1 [Compound 379, N-[4-Chloro-2-(3-fluoro-benzylidene-hydrazinocarbonyl)-phenyl]-3-{[(2-diethylamino-ethyl)-methyl-amino]-methyl}-benzamide]
1.25 | – | CCN(CC)CCN(C)Cc1cccc(C(=O)Nc2ccc(N3CCCC3)cc2C(=O)N/N=C/c2ccc(Cl)c(C(F)(F)F)c2)c1 [Compound 917, N-[2-(4-Chloro-3-trifluoromethyl-benzylidene-hydrazinocarbonyl)-4-pyrrolidin-1-yl-phenyl]-3-{[(2-diethylamino-ethyl)-methyl-amino]-methyl}-benzamide]
1.46 | – | Cc1csc(NC(=O)c2cccc(CSc3nc[nH]n3)c2)c1C(=O)N/N=C/c1cccc(F)c1 [Compound 554, N-[3-(3-Fluoro-benzylidene-hydrazinocarbonyl)-4-methyl-thiophen-2-yl]-3-(1H-[1,2,4]triazol-3-ylsulfanylmethyl)-benzamide]
